# Like-named read-outs stand apart in the source and are kept apart here.
# Assays:
# [1] = tested on: platelet aggregation; assay: Test of Platelet Aggregation Inhibition (ex vivo, p.o.); assay type: in vivo, rat (male Wistar Imamichi); conditions: for inhibition at 1 mg/kg / inhibition at 10 mg/kg: Rattus norvegicus, Platelet, po, 1 h, read-out: Platelet Aggregation Inhibitory Activity (ex vivo: % inhibition); for inhibition at 1 mg/kg: p.o. 1 mg/Kg; for inhibition at 10 mg/kg: p.o. 10 mg/Kg
# Experimental: One hour later, citrated blood was taken from the heart, and platelet aggregation was determined in the same manner as described in Test Example 2.
# [2] = tested on: pancreatic juice secretion; assay: Test of Stimulation on Pancreatic Juice Secretion in Dog; assay type: in vivo, dog (adult mongrel); conditions: for total output amount of bicarbonate ions as compared with the control: 30 minutes after administration; for Pancreatic Juice Secretion, Total: total 0-60 min; for total volume of pancreatic juice as compared with the control (100%): total after 60 minutes
# Experimental: Adult mongrel dogs (male and female) having a body weight of 11.8 to 15.8 Kg were anesthetized with Nembutal and Phenobal and a cannula was inserted into pancreatic duct. A solution of Compound (I) dissolved in a physiological saline solution was administered intravenously from femoral vein at a dose of 0.5 ml/Kg. The volume of pancreatic juice was determined in a polyethylene tube connected to the cannula, and the bicarbonate ion concentration in the pancreatic juice was determined by neutralization titration. As a control, a physiological saline solution was administered intravenously.
# [3] = LD50 (probit method), mouse; conditions: in vivo, iv
# [4] = tested on: platelet aggregation; assay: Test of Platelet Aggregation Inhibition (ex vivo; i.v.); design: species or system rat (male Wistar-Imamichi); conditions: Rattus norvegicus, iv, 0.25 h, 15 min, read-out: Platelet Aggregation Inhibitory Activity (in vivo: % inhibition); for inhibition at 0.02 mg/kg: i.v. 0.02 mg/Kg/min; for inhibition at 0.067 mg/kg: i.v. 0.067 mg/Kg/min
# Experimental: As test animals, 5 male Wistar-Imamichi rats (body weight: about 270 g) that had been allowed food and water ad libitum were used per group. The test compound was dissolved in a physiological saline solution (J.P.) and continuously injected to the rats under anesthesia with pentobarbital through the femoral vein. 15 minutes later, citrated blood was taken from the heart, and platelet aggregation was determined in the same manner as in Test Example 2.
# [5] = tested on: 3LL-induced aggregation; assay: Test of Inhibition of Platelet Aggregation Caused by Cancer Cells (ex vivo), 3LL; assay type: in vivo, C57BL/6 mouse
# Experimental: The compound of the invention (dihydrochloride monohydrate) dissolved in a physiological saline solution (J.P.) was intravenously or orally administered to a 7-week-old C57BL/6 male mouse (body weight: about 20 g). Three minutes after the intravenous administration or 1 hour later from the oral administration, blood was taken from the abdominal vein into a syringe containing 1/10 volume of a 3.13% aqueous solution of sodium citrate dihydrate and PRP was prepared as described before in Test Example 6. The PRP was placed in a reaction tube under the same conditions as in Test Example 6, and 5 μl of a 200 mM calcium chloride aqueous solution was added thereto. One minute later, 50 μl of a B16BL6 (5×10^4 cells/50 μl)- or a 3LL (2×10^6 cells/50 μl)-cell suspension was added to the system. In the same manner as in Test Example 6, platelet aggregation was determined.
# [6] = tested on: circulatory system; assay: Test of Influence on Circulatory System (blood pressure, heart beat); assay type: in vivo, rat (male normal SLC-Wistar); conditions: p.o. 50 mg/Kg
# Experimental: 5 or 6 male normal SLC-Wistar rats per group (body weight: 205-255 g) orally received 50 mg/Kg of the test compound, and the blood pressure (tail cuff method) and the heart beats were measured with the passage of time in order to elucidate influences of the test compound on the circulatory system.
# [7] = tested on: platelet aggregation due to addition of B16BL6 cells; assay: Test of Inhibition of Platelet Aggregation Caused by Cancer Cells (in vitro), B16BL6; assay type: cell-based, C57BL/6 mouse
# Experimental: Blood was taken from the abdominal vein of a 7-week-old C57BL/6 male mouse into a syringe containing 1/10 volume of a 3.13% aqueous solution of sodium citrate dihydrate as an anticoagulant. The thus prepared citrated blood sample was centrifuged at 230×g at room temperature for 7 minutes. The resulting supernatant fluid was used as PRP. The remainder was further centrifuged at 1,500×g at room temperature for 10 minutes, and the supernatant fluid was used as platelet-poor-plasma (PPP). Platelet count in PRP was adjusted to 450,000 per mm^3 by PPP. A 450 μl of PRP was placed in a reaction tube and subjected to centrifugation at 950 rpm at 30° C. About 1 minute later while continuing the centrifugation, 5 μl of a 200 mM calcium chloride aqueous solution was added to the system to a final concentration of […]. 30 seconds later, 5 μl of a saline solution of the compound (I) (dihydrochloride monohydrate) was added to the system, and additional 30 seconds later, 50 μl of a cell suspension containing 1×10^5 cells of B16 melamona BL6 (B16BL6) originated in a C57BL mouse or 50 μl of a cell suspension containing 1×10^6 cells of Lewis lung cancer (3LL) originated in a C57BL mouse was added thereto. Platelet aggregation of the sample system was determined from changes in transmittancy by use of an aggregometer. […]
smiles,measurement,setting,value
"O=C1CN2Cc3cc(N4CCCCC4)ccc3N=C2N1 [Compound (I), 7-piperidino-1,2,3,5-tetrahydroimidazo[2,1-b]quinazolin-2-one]",inhibition at 1 mg/kg,[1]; inducer ADP,16.8%
same,inhibition at 1 mg/kg,[1]; inducer collagen,20.6%
same,inhibition at 10 mg/kg,[1]; inducer ADP,33.8%
same,inhibition at 10 mg/kg,[1]; inducer collagen,59.5%
same,aggregation inhibitory activity ex vivo (in words),"[1]; p.o. 10 mg/Kg or 1 mg/Kg, ADP- or collagen-induced",significant aggregation inhibitory activity
same,total output amount of bicarbonate ions as compared with the control,[2]; 300 μg/Kg,198%
same,bicarbonate ion concentration in pancreatic juice as compared with the control,[2]; 1000 μg/Kg,266%
same,total output amount of bicarbonate ions as compared with the control,[2]; 1000 μg/Kg,674%
same,bicarbonate ion concentration in pancreatic juice as compared with the control,[2]; i.v. 100 μg/Kg,109%
same,total output amount of bicarbonate ions as compared with the control,[2]; i.v. 100 μg/Kg,116%
same,Amount of Bicarbonate Ion Secretion,[2]; i.v. 100 μg/kg,44.6 ± 9.3 µEq/h
same,Bicarbonate Ion Concentration,[2]; i.v. 100 μg/kg,44.5 ± 6.1 mEq/l
same,activity on the pancreatic juice secretion (in words),[2]; i.v. 100 μg/kg,did not show any significant activity
same,Pancreatic Juice Secretion,"[2]; i.v. 100 μg/kg, 0-15 min",323 ± 81 µL
same,Pancreatic Juice Secretion,"[2]; i.v. 100 μg/kg, 15-30 min",223 ± 45 µL
same,Pancreatic Juice Secretion,"[2]; i.v. 100 μg/kg, 30-45 min",178 ± 31 µL
same,Pancreatic Juice Secretion,"[2]; i.v. 100 μg/kg, 45-60 min",226 ± 48 µL
same,"Pancreatic Juice Secretion, Total",[2]; i.v. 100 μg/kg,950 ± 185 µL
same,bicarbonate ion concentration in pancreatic juice as compared with the control,[2]; i.v. 300 μg/Kg,130%
same,total volume of pancreatic juice as compared with the control (100%),[2]; i.v. 300 μg/Kg,161%
same,Amount of Bicarbonate Ion Secretion,[2]; i.v. 300 μg/kg,65.9 ± 9.6 µEq/h
same,Bicarbonate Ion Concentration,[2]; i.v. 300 μg/kg,45.8 ± 2.1 mEq/l
same,Pancreatic Juice Secretion,"[2]; i.v. 300 μg/kg, 0-15 min",521 ± 112 µL
same,Pancreatic Juice Secretion,"[2]; i.v. 300 μg/kg, 15-30 min",321 ± 53 µL
same,Pancreatic Juice Secretion,"[2]; i.v. 300 μg/kg, 30-45 min",291 ± 44 µL
same,Pancreatic Juice Secretion,"[2]; i.v. 300 μg/kg, 45-60 min",310 ± 31 µL
same,pancreatic juice secretion as compared with the control (100%),"[2]; i.v. 300 μg/kg, after 15 minutes",214%
same,"Pancreatic Juice Secretion, Total",[2]; i.v. 300 μg/kg,1444 ± 214 µL
same,total volume of pancreatic juice as compared with the control (100%),[2]; i.v. 1000 μg/Kg,254%
same,Amount of Bicarbonate Ion Secretion,[2]; i.v. 1000 μg/kg,224 ± 24.7 µEq/h
same,Bicarbonate Ion Concentration,[2]; i.v. 1000 μg/kg,79.8 ± 5.6 mEq/l
same,Pancreatic Juice Secretion,"[2]; i.v. 1000 μg/kg, 0-15 min",1363 ± 117 µL
same,Pancreatic Juice Secretion,"[2]; i.v. 1000 μg/kg, 15-30 min",573 ± 69 µL
same,Pancreatic Juice Secretion,"[2]; i.v. 1000 μg/kg, 30-45 min",455 ± 100 µL
same,Pancreatic Juice Secretion,"[2]; i.v. 1000 μg/kg, 45-60 min",414 ± 112 µL
same,pancreatic juice secretion as compared with the control (100%),"[2]; i.v. 1000 μg/kg, after 15 minutes",440%
same,pancreatic juice secretion as compared with the control (100%),"[2]; i.v. 1000 μg/kg, after 30 minutes",202%
same,"Pancreatic Juice Secretion, Total",[2]; i.v. 1000 μg/kg,2805 ± 225 µL
same,LD50,[3]; female ddy mouse,380 mg/kg
same,LD50,[3]; male ddy mouse,314 mg/kg
same,inhibition at 0.02 mg/kg,[4]; inducer ADP,11%
same,inhibition at 0.02 mg/kg,[4]; inducer collagen,86%
same,inhibition at 0.067 mg/kg,[4]; inducer ADP,37%
same,inhibition at 0.067 mg/kg,[4]; inducer collagen,100%
same,delay of 3LL-induced aggregation (ex vivo),[5]; 10 mg/kg (i.v.),≥ 150%
same,inhibition of 3LL-induced aggregation (ex vivo),[5]; 30 mg/kg (i.v.),completely inhibited
same,reduction in blood pressure and increase in heart beat (in words),[6],relatively small and also these changes can be restored in short periods of time
same,Increase in Heart Beat,[6]; 1 hr after admin.,27%
same,Reduction in Blood Pressure,[6]; 1 hr after admin.,18%
same,Increase in Heart Beat,[6]; 2 hr after admin.,32%
same,Reduction in Blood Pressure,[6]; 2 hr after admin.,12%
same,Increase in Heart Beat,[6]; 3 hr after admin.,27%
same,Reduction in Blood Pressure,[6]; 3 hr after admin.,12%
same,Increase in Heart Beat,[6]; 5 hr after admin.,25%
same,Reduction in Blood Pressure,[6]; 5 hr after admin.,12%
same,Increase in Heart Beat,[6]; 6 hr after admin.,17%
same,Reduction in Blood Pressure,[6]; 6 hr after admin.,9%
same,inhibition of platelet aggregation due to addition of B16BL6 cells,[7]; 0.3 μM,partially inhibited
same,inhibition of platelet aggregation due to addition of B16BL6 cells,[7]; final concentration of 3 μM or more,completely inhibited

# — patent US4596806A, “7-piperidino-1,2,3,5-tetrahydroimidazo[2,1-b]-quinazolin-2-one having platelet aggregation inhibitory activity” (Daiichi Seiyaku Co., Ltd., priority 1983, dated 1986)
